Tests used:
[1] = system: THP1 cells (LPS-induced TNF-α secretion); assay: Lipopolysaccharide-activated THP1 cell TNF production assay; format: cell-based; settings: Homo sapiens, THP-1
Protocol: Lipopolysaccharide-Activated THP1 Cell TNF Production Assay
THP1 cells are resuspended in fresh THP1 media (RPMI 1640, 10% heat-inactivated FBS, 1XPGS, 1XNEAA, plus 30 μM βME) at a concentration of 1E6/mL. One hundred microliters of cells per well are plated in a polystyrene 96-well tissue culture. One microgram per mL of bacterial LPS is prepared in THP1 media and is transferred to the wells. Test compounds are dissolved in 100% DMSO and are serially diluted 3-fold in a polypropylene 96-well microtiter plate (drug plate). HI control and LO control wells contain only DMSO. One microliter of test compound from the drug plate followed by 10 μL of LPS are transferred to the cell plate. The treated cells are induced to synthesize and secrete TNF-α at 37° C. for 3 h. Forty microliters of conditioned media are transferred to a 96-well polypropylene plate containing 110 μL of ECL buffer (50 mM Tris-HCl pH 8.0, 100 mM NaCl, 0.05% Tween 20, 0.05% NaN3 and 1% FBS) supplemented with 0.44 nM MAB610 monoclonal Ab (R&D Systems), 0.34 nM ruthenylated AF210NA polyclonal Ab (R&D Systems) and 44 μg/mL sheep anti-mouse M280 Dynabeads (Dynal). After a 2 h incubation at room temperature with shaking, the reaction is read on the ECL M8 Instrument (IGEN Inc.). A low voltage is applied to the ruthenylated TNF-α immune complexes, which in the presence of TPA (the active component in Origlo), results in a cyclical redox reaction generating light at […]. The amount of secreted TNF-α in the presence of compound compared with that in the presence of DMSO vehicle alone (HI control) is calculated using the formula: % control (POC)=(cpd−average LO)/(average HI−average LO)*100. Data (consisting of POC and inhibitor concentration in μM) is fitted to a 4-parameter equation (y=A+((B−A)/(1+((x/C)^D))), where A is the minimum y (POC) value, B is the maximum y (POC), C is the x (cpd concentration) at the point of inflection and D is the slope factor) using a Levenburg-Marquardt non-linear regression algorithm.

[2] = system: production of TNF by monocytes activated with bacterial lipopolysaccharide (LPS); assay: Lipopolysaccharide-activated monocyte TNF production assay (whole blood monocyte assay, LPS induced TNF release); format: cell-based; settings: Homo sapiens
Protocol: Lipopolysaccharide-Activated Monocyte TNF Production Assay
Test compounds were evaluated in vitro for the ability to inhibit the production of TNF by monocytes activated with bacterial lipopolysaccharide (LPS). Fresh residual source leukocytes (a byproduct of plateletpheresis) were obtained from a local blood bank, and peripheral blood mononuclear cells (PBMCs) were isolated by density gradient centrifugation on Ficol-Paque Plus (Pharmacia). PBMCs were suspended at 2×10^6/mL in DMEM supplemented to contain 2% FCS, 10 mM, 0.3 mg/mL […], 100 U/mL penicillin G and […] streptomycin sulfate (complete media). Cells were plated into Falcon flat bottom, 96 well culture plates (200 μL/well) and cultured overnight at 37° C. and 6% CO2. Non-adherent cells were removed by washing with 200 μl/well of fresh medium. Wells containing adherent cells (˜70% monocytes) were replenished with 100 μL of fresh medium.
Preparation of Test Compound Stock Solutions
Test compounds were dissolved in […]. Compound stock solutions were prepared to an initial concentration of […]. Stocks were diluted initially to 20-200 μM in complete media. Nine two-fold serial dilutions of each compound were then prepared in complete medium.
Treatment of Cells with Test Compounds and Activation of TNF Production with Lipopolysaccharide
One hundred microliters of each test compound dilution were added to microtiter wells containing adherent monocytes and 100 μL complete medium. Monocytes were cultured with test compounds for 60 min at which time 25 μL of complete medium containing 30 ng/mL lipopolysaccharide from E. coli K532 were added to each well. Cells were cultured an additional 4 hrs. Culture supernatants were then removed and TNF presence in the supernatants was quantified using an ELISA.
Flat bottom, 96 well Corning High Binding ELISA plates were coated overnight (4° C.) with 150 μL/well of 3 μg/mL murine anti-human TNF-α MAb (R&D Systems #MAB210). Wells were then blocked for 1 h at room temperature with 200 μL/well of CaCl2-free ELISA buffer supplemented to contain 20 mg/mL BSA (standard ELISA buffer: […], 150 mM NaCl, 2 mM CaCl2, 0.15 mM thimerosal, pH 7.4). Plates were washed and replenished with 100 μL of test supernatants (diluted 1:3) or standards. Standards consisted of eleven 1.5-fold serial dilutions from a stock of 1 ng/mL recombinant human TNF (R&D Systems). Plates were incubated at room temperature for 1 h on orbital shaker (300 rpm), washed and replenished with 100 μL/well of 0.5 μg/mL goat anti-human TNF-α (R&D systems #AB-210-NA) biotinylated at a 4:1 ratio. Plates were incubated for 40 min, washed and replenished with 100 μL/well of alkaline phosphatase-conjugated streptavidin (Jackson ImmunoResearch #016-050-084) at 0.02 μg/mL. Plates were incubated 30 min, washed and replenished with 200 μL/well of 1 mg/mL of p-nitrophenyl phosphate. After 30 min, plates were read at 405 nm on a Vmax plate reader.

SMILES | IC50 [1] | IC50 [2]
Cc1ccc(C(=O)Nc2ccnn2C)cc1-c1ccc2c(OCC(F)(F)F)nncc2c1 [Example 2, 4-Methyl-N-(1-methyl-1H-pyrazol-5-yl)-3-(1-(2,2,2-trifluoroethoxy)phthalazin-6-yl)benzamide] | ≤ 0.01 µM | –
CCn1nccc1NC(=O)c1ccc(C)c(-c2ccc3c(NC(C)C)nncc3c2)c1 [Example 3, N-(1-Ethyl-1H-pyrazol-5-yl)-3-(1-(isopropylamino)phthalazin-6-yl)-4-methylbenzamide] | ≤ 0.01 µM | ≤ 0.01 µM
Cc1ccc(C(=O)Nc2ccnn2C)cc1-c1ccc2c(-c3ccccc3C)nncc2c1 [Example 5, 4-methyl-N-(1-methyl-1H-pyrazol-5-yl)-3-(1-o-tolylphthalazin-6-yl)benzamide] | ≤ 0.01 µM | ≤ 0.01 µM
CC(C)Nc1nncc2cc(-c3cc(C(=O)NC4CC4)ccc3Cl)ccc12 [Example 23, 4-chloro-N-cyclopropyl-3-(1-((1-methylethyl)amino)-6-phthalazinyl)benzamide] | ≤ 0.01 µM | –

Continued, in another order:

IC50 [1] | SMILES | IC50 [2]
≤ 0.01 µM | CC(C)Oc1nncc2cc(-c3cc(C(N)=O)ccc3Cl)ccc12 [Example 25, 4-chloro-3-(1-((1-methylethyl)oxy)-6-phthalazinyl)benzamide] | –
≤ 0.1 µM | Cc1ccc(C(=O)NC2CC2)cc1-c1ccc2c(OC(CF)CF)nncc2c1 [Example 49, N-cyclopropyl-3-(1-((2-fluoro-1-(fluoromethyl)ethyl)oxy)-6-phthalazinyl)-4-methylbenzamide] | –

Reference: patent US8101612B2, “Phthalazine compounds and methods of use” (Amgen Inc., priority 2006, dated 2012)
